Literature values as cited in US6403361B1, “Enzymatic method for modification of recombinant polypeptides” (Restoragen, Inc., priority 1993, dated 2002).
Like-named read-outs stand apart in the source and are kept apart here.

What was measured:
[1] = biological target: T1, Adenosine deaminase (Homo sapiens, UniProt P00813); conditions: E is times ten to the negative exponent
T1 sequence (P00813 1-363): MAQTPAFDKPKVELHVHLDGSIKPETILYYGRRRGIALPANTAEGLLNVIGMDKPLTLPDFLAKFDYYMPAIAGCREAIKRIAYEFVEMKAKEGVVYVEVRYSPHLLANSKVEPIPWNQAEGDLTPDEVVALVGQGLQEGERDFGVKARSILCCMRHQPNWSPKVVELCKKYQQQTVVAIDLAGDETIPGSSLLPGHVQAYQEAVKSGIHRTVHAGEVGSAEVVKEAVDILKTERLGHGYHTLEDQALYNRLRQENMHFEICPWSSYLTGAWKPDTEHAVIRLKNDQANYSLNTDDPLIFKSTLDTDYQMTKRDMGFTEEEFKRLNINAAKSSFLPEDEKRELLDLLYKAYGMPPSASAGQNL

[2] = biological target: T2, Cholesterol esterase (Homo sapiens, UniProt P19835); conditions: Ref. 8 (Sutton et al., BBRC, 134, 386-392 (1986)); E is times ten to the negative exponent
T2 sequence (P19835 21-753): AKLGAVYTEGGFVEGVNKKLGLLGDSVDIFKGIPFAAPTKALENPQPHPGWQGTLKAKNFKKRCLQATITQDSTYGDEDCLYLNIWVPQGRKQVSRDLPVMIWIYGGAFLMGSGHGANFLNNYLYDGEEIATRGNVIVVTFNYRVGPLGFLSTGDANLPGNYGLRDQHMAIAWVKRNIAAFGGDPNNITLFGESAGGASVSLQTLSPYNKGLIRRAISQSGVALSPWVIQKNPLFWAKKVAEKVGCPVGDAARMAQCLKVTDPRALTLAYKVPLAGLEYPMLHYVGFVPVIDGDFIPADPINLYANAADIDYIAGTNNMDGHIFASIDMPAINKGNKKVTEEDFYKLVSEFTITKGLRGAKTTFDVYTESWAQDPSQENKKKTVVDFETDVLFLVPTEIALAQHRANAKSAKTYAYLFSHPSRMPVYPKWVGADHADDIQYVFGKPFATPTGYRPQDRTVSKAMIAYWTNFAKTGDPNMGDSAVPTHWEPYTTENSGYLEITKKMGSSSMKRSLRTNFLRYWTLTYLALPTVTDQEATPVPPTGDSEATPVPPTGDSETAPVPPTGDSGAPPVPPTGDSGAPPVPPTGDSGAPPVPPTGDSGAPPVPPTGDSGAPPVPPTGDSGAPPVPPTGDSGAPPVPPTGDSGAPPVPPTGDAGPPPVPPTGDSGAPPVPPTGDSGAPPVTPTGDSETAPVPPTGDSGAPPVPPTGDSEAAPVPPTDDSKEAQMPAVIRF

For CCCCCCC(C(C)O)n1cnc2c(N)ncnc21 (stereo not drawn) [erythro-9-(2-hydroxy-3 nonyl) adenine], the Kd ([1]; Ref. 2 (Agarwal et al., Biochemical Pharm., 26, 354-367 (1977))) is listed as 1600 pM.

In the case of Borinic acid, the Kd [2] is given as 100 pM.

For OC[C@H]1O[C@@H](n2cnc3c2N=CNC[C@H]3O)[C@H](O)[C@@H]1O [Coformycin], the Kd ([1]; Ref. 1 (Cha et al., Biochemical Pharm., 24, 2187-2197)) is given as < 120 pM.
